PubChem BioAssay (NCI)
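Each compound was tested at five concentrations against cells in 96-well plates for 48 hours. GI50 marks 50% less growth. TGI denotes the concentration required for complete inhibition of growth.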

Legend:
Assay in all cases: growth of human tumour cells (NCI), 48 h
NCI-H460 lung = system: NCI-H460 lung
MALME-3M melanoma = system: MALME-3M melanoma
HCT-15 colon = system: HCT-15 colon
CCRF-CEM leukemia = system: CCRF-CEM leukemia
EKVX NSCLC = system: EKVX NSCLC
KM12 colon = system: KM12 colon
SF-295 CNS = system: SF-295 CNS
HCC-2998 colon = system: HCC-2998 colon

SMILES	GI50 (NCI-H460 lung)	TGI (NCI-H460 lung)	GI50 (MALME-3M melanoma)	TGI (MALME-3M melanoma)	GI50 (HCT-15 colon)	TGI (HCT-15 colon)	GI50 (CCRF-CEM leukemia)	TGI (CCRF-CEM leukemia)	GI50 (EKVX NSCLC)	TGI (EKVX NSCLC)	GI50 (KM12 colon)	TGI (KM12 colon)	GI50 (SF-295 CNS)	TGI (SF-295 CNS)	GI50 (HCC-2998 colon)	TGI (HCC-2998 colon)
C[CH2][Hg][S]c1ccccc1C(=O)O	2.64 µM	8.98 µM	0.801 µM	2.25 µM	1.07 µM	2.52 µM	0.291 µM	2.74 µM	2.05 µM	5.39 µM	3.82 µM	13.3 µM	3.7 µM	16.5 µM	1.67 µM	3.08 µM
CCc1c(C)nc2sc3c(N)ncnc3c2c1C	> 25 µM	> 25 µM	> 25 µM	> 25 µM	> 25 µM	> 25 µM	> 25 µM	> 25 µM			> 25 µM	> 25 µM	> 25 µM	> 25 µM	> 25 µM	> 25 µM
FC(F)(F)c1cccc(-c2nn3ncccc3c2-c2ccnc(Nc3ccc4c(c3)OCCO4)n2)c1	11.1 µM	> 25 µM	> 25 µM	> 25 µM	6.59 µM	> 25 µM	0.511 µM	> 25 µM	13.9 µM	> 25 µM	14.1 µM	> 25 µM	18.2 µM	> 25 µM	13 µM	> 25 µM
CC1C=CC(OC(=O)C(C)(O)CCC(O)(C(=O)OC2CC(O)C(C(C)C)CC2(C)O)C(C)C)(C(C)C)CC1 (stereo unspecified)	0.799 µM	1.59 µM	0.709 µM	1.45 µM	0.235 µM	0.869 µM	0.244 µM	0.901 µM	0.618 µM	1.41 µM	0.689 µM	1.45 µM	0.657 µM	1.41 µM	2.7 µM	8.91 µM
Cc1[nH]nc(-c2ccon2)c1N=O		> 100 µM		38.2 µM		34.7 µM				31.3 µM		38.4 µM		34.6 µM		
Cn1ccnc1Oc1ccc(Cl)cc1		> 100 µM		10.2 µM		23.9 µM				49.1 µM						14.9 µM
COc1cc(C(=O)c2cc(C)c3[nH]c4ccc(O)cc4c3c2C)cc(OC)c1OC	< 0.0185 µM	> 100 µM	0.0347 µM	> 100 µM	0.0196 µM	> 100 µM	0.0254 µM	> 100 µM	0.0466 µM	> 100 µM	< 0.0127 µM	23.8 µM	< 0.01 µM	0.326 µM	0.03 µM	> 37.9 µM
CN=C1OC2(c3ccccc3)C3=C(OC(=NC)N2C)C(=O)OC3(c2ccccc2)N1C (stereo unspecified)		> 100 µM				> 100 µM		> 100 µM		> 100 µM		> 100 µM		> 100 µM		> 100 µM
